In patent US12678412B2, “Substituted tolans for the modulation of microbial colonization” (BioMendics, LLC, priority 2017, dated 2026):
Read-outs that look alike come from different tables or passages of the source.

What was measured:
MRSA USA 400 biofilm = test: Biofilm inhibition assay (prevention of biofilm formation); assay type: cell-based, Staphylococcus aureus; conditions: overnight 37° C.
Description: Proliferating cultures of Methicillin Resistant Staphylococcus aureus (MRSA, USA 400) were used in a colony forming assay. Frozen stock cultures of MRSA USA 400 were thawed and grown overnight in tryptic soy broth (TSB) with shaking at 37° C. The overnight culture (0.5-1.0 mL) was added to 100 mL TSB and grown at 37° C. with shaking and monitored for an optical density of 0.55-0.60 in order to obtain a final inoculum suspension of approximately 10^8 CFU/mL.
For the biofilm inhibition assay, 100 μL of MRSA USA 400 inoculum (10^8 CFU/mL) was plated with 100 μL of each BM3103 drug concentration in a 96 well plate. A 0.1 M stock of BM3103 was dissolved in ethanol and serially diluted in TSB across a 96 well plate to obtain final concentrations of 1 mM to 0.002 mM. The drug treated inoculum grew overnight at 37° C. without shaking.

MRSA USA 400 biofilms = test: Treatment of an existing biofilm; assay type: cell-based, Staphylococcus aureus
Description: For the treatment of MRSA USA 400 biofilms, the same 96 well plate assay procedure was used as described in the biofilm inhibition section above. However, the MRSA USA 400 inoculum (10^8 CFU/mL) grew overnight at 37° C. in the absence of BM3103 and without shaking. After 24 h of biofilm formation, BM3103 was serially diluted across a 96 well plate from of 1 mM to 0.002 mM. The plate was incubated again overnight at 37° C. without shaking.

S. typhimurium TA1535 = test: Dose range finding colony forming assay, strain TA1535 without metabolic activation; assay type: cell-based
Description: (§1) A series of dose range finding assays were performed with five bacterial strains, S. typhimurium TA97a, TA98, TA100, TA1535, and E. coli WP2 uvrA pKM101, with and without metabolic activation at three plates per dose. The following doses, along with positive and negative controls, were tested: 5000, 2500, 1250, 500, 250, 125, 50, 20, 10, 5, 2, 1, and 0.2 μg/plate. The plates were evaluated for toxicity (a decrease in plate counts with increasing dose and/or a visible thinning of the background lawn) and for precipitation of the test article. Metabolic activation was included in some samples by adding phenobarbital/benzoflavone-induced rat liver S9 fractions with cofactors (S9 mix). Prior to use, freshly thawed aliquots of rat liver S9 were mixed with a sterile cofactor mix. The S9 mix contains a 10% liver S9 concentration and was refrigerated or stored on ice until used. When testing with metabolic activation, the S9 mix was used in the assay tube in place of phosphate buffer.
(§2) Dosing formulations were prepared to deliver all doses in a constant volume of 0.1 mL. The highest dose was prepared from test article weighed to the nearest 0.1 mg and the remaining formulations were prepared as serial dilutions from the high dose stock formulation. Using a permanent marking pen or computer printed labels, assay plates were labeled with the project and study numbers and the date. Assay plates and tubes were labeled with a unique identifier, which was used to match the assay tubes with the properly identified minimal glucose agar plate.
(§3) The pre-incubation method was used to perform the assay. The assay mix consisted of 0.1 mL of the test article formulation or control article, 0.5 mL S9 mix or phosphate buffer, and 0.1 mL of bacterial culture. Assay tubes were incubated at 37±1° C. with gentle agitation for 20±1 minutes, then 2.0-2.5 mL top agar was added to the assay mix and the top agar/assay mix poured onto appropriately labeled minimal glucose agar plates. Once the top agar hardened, the plates were inverted and incubated at 37±1° C. for 48±2 hours. Plates were counted with the Sorcerer (v. 2.2)/Ames Study Manager (v. 1.2.4) system from Perceptive Instruments (Suffolk, UK). With this system, plate counts are automatically transferred from the plate imager (Sorcerer) to a Study Manager spreadsheet, and the data are stored in a secure manner on an Oracle database. Some plates were hand counted, e.g., if sample precipitate interferes with automatic counting or toxicity results in the formation of microcolonies, in which case, counts for these plates were entered into the spreadsheet manually. Plates were scored also with the extent of colonization by a post fix code.

E. coli WP2 uvrA pKM101 = assay type: cell-based; conditions: without metabolic activation
Description: as §1, §2, §3

`COc1ccc(C#Cc2ccc(O)cc2)cc1` [BM3103, 4-hydroxy-4′-methoxytolan] was tested, and the “Biofilm formation of MRSA USA 400” value (MRSA USA 400 biofilm; 0.008 mM, FIG. 12B) was “Mild biofilm formation”, the “Biofilm formation of MRSA USA 400” value (MRSA USA 400 biofilm; 0.625 mM, FIG. 12A) was “inhibits biofilm formation of MRSA USA 400 completely” and the “Biofilm formation of MRSA USA 400” value (MRSA USA 400 biofilm; about 0.002 mM, FIGS. 12C-12D) was “no effect on biofilm formation”. For the same compound, the “Concentrations that completely inhibit biofilm formation” value (MRSA USA 400 biofilm) was “above 0.0625 mM”, the “Reduction of established MRSA USA 400 biofilm” value (shortened to “Reduction”) (MRSA USA 400 biofilms; 0.008 mM, 24 h treatment of 24 h biofilm, FIG. 14C) was “slight reduction in the biofilm” and the “Reduction” value (MRSA USA 400 biofilms; 0.0625 mM or above, 24 h treatment of 24 h biofilm, FIG. 14B) was “reduced the biofilm of MRSA USA 400 significantly”. For the same compound, the “Reduction” value (MRSA USA 400 biofilms; 0.125 mM, 24 h treatment of 24 h biofilm, FIG. 14A) was “reduced the biofilm of MRSA USA 400 significantly”, the “Reduction” value (MRSA USA 400 biofilms; concentrations below 0.002 mM, FIG. 14D) was “no reduction in the biofilm” and the Colony forming units/plate (S. typhimurium TA1535; 0.2 μg/plate) was 12.0 colony forming units/plate. The Individual colony counts (S. typhimurium TA1535; 0.2 μg/plate) was 12, the Colony forming units/plate (S. typhimurium TA1535; 1 μg/plate) was 11.0 colony forming units/plate and the Individual colony counts (S. typhimurium TA1535; 1 μg/plate) was 11. The Colony forming units/plate (S. typhimurium TA1535; 2 μg/plate) was 10.0 colony forming units/plate, the Individual colony counts (S. typhimurium TA1535; 2 μg/plate) was 10 and the Colony forming units/plate (S. typhimurium TA1535; 5 μg/plate) was 6.0 colony forming units/plate. The Individual colony counts (S. typhimurium TA1535; 5 μg/plate) was 6, the Colony forming units/plate (S. typhimurium TA1535; 10 μg/plate) was 0.0 colony forming units/plate and the Individual colony counts (S. typhimurium TA1535; 10 μg/plate) was 0. The “Plate postfix code (individual colony counts)” value (from here on “Plate postfix code”) (S. typhimurium TA1535; 10 μg/plate) was “A T”, the Colony forming units/plate (S. typhimurium TA1535; 20 μg/plate) was 0.0 colony forming units/plate and the Individual colony counts (S. typhimurium TA1535; 20 μg/plate) was 0. The Colony forming units/plate (S. typhimurium TA1535; 50 μg/plate) was 0.0 colony forming units/plate, the Individual colony counts (S. typhimurium TA1535; 50 μg/plate) was 0 and the Colony forming units/plate (S. typhimurium TA1535; 125 μg/plate) was 0.0 colony forming units/plate. The Individual colony counts (S. typhimurium TA1535; 125 μg/plate) was 0, the Colony forming units/plate (S. typhimurium TA1535; 250 μg/plate) was 0.0 colony forming units/plate and the Individual colony counts (S. typhimurium TA1535; 250 μg/plate) was 0. For the same compound, the Colony forming units/plate (S. typhimurium TA1535; 500 μg/plate) was 0.0 colony forming units/plate, the Individual colony counts (S. typhimurium TA1535; 500 μg/plate) was 0 and the Colony forming units/plate (S. typhimurium TA1535; 1250 μg/plate) was 0.0 colony forming units/plate. For the same compound, the Individual colony counts (S. typhimurium TA1535; 1250 μg/plate) was 0, the “Plate postfix code” value (S. typhimurium TA1535; 1250 μg/plate) was “A P” and the Colony forming units/plate (S. typhimurium TA1535; 2500 μg/plate) was 0.0 colony forming units/plate. The Individual colony counts (S. typhimurium TA1535; 2500 μg/plate) was 0, the “Plate postfix code” value (S. typhimurium TA1535; 2500 μg/plate) was “A P” and the Colony forming units/plate (S. typhimurium TA1535; 5000 μg/plate) was 0.0 colony forming units/plate. For the same compound, the Individual colony counts (S. typhimurium TA1535; 5000 μg/plate) was 0, the “Plate postfix code” value (S. typhimurium TA1535; 5000 μg/plate) was “A P” and the Colony forming units/plate (E. coli WP2 uvrA pKM101; 20 μg/plate) was 138.0 colony forming units/plate. The Individual colony counts (E. coli WP2 uvrA pKM101; 20 μg/plate) was 138, the Colony forming units/plate (E. coli WP2 uvrA pKM101; 50 μg/plate) was 14.0 colony forming units/plate and the Individual colony counts (E. coli WP2 uvrA pKM101; 50 μg/plate) was 14. The Colony forming units/plate (E. coli WP2 uvrA pKM101; 125 μg/plate) was 0.0 colony forming units/plate, the Individual colony counts (E. coli WP2 uvrA pKM101; 125 μg/plate) was 0 and the Colony forming units/plate (E. coli WP2 uvrA pKM101; 250 μg/plate) was 0.0 colony forming units/plate. For the same compound, the Individual colony counts (E. coli WP2 uvrA pKM101; 250 μg/plate) was 0, the “Plate postfix code” value (E. coli WP2 uvrA pKM101; 250 μg/plate) was “A P” and the Colony forming units/plate (E. coli WP2 uvrA pKM101; 500 μg/plate) was 0.0 colony forming units/plate. The Individual colony counts (E. coli WP2 uvrA pKM101; 500 μg/plate) was 0, the “Plate postfix code” value (E. coli WP2 uvrA pKM101; 500 μg/plate) was “A P” and the Colony forming units/plate (E. coli WP2 uvrA pKM101; 1250 μg/plate) was 0.0 colony forming units/plate. For the same compound, the Individual colony counts (E. coli WP2 uvrA pKM101; 1250 μg/plate) was 0, the Colony forming units/plate (E. coli WP2 uvrA pKM101; 2500 μg/plate) was 0.0 colony forming units/plate and the Individual colony counts (E. coli WP2 uvrA pKM101; 2500 μg/plate) was 0. For the same compound, the “Plate postfix code” value (E. coli WP2 uvrA pKM101; 2500 μg/plate) was “A P”, the Colony forming units/plate (E. coli WP2 uvrA pKM101; 5000 μg/plate) was 0.0 colony forming units/plate and the Individual colony counts (E. coli WP2 uvrA pKM101; 5000 μg/plate) was 0. For the same compound, the “Plate postfix code” value (E. coli WP2 uvrA pKM101; 5000 μg/plate) was “A P”.
